In brackets after ≈: the same amount, converted by molar mass. Like-named read-outs stand apart in the source and are kept apart here.
Experiments:
[1] = test system: histone H2B Tyr37-phopshorylation (pY37-H2B); experiment: WEE1 epigenetic activity in cells: pY37-H2B immunoprecipitation/immunoblot; type: cell-based, human; details: LNCaP cells
Excerpt: FIGS. 2A-2B show identification of 3 distinct types of inhibitors. […] In addition, the lysates were also subjected to by immunoblotting with pY15-Cdc2 or actin antibodies (middle and bottom panels). […] The number vehicle treated cells were used as control and percent of surviving cells were plotted.
(§1) FIGS. 4A-4B show structures of ‘hits’ identified in WEE1 epigenetic inhibitor screen. […] The reaction mix was then subjected to immunoprecipitated with WEE1 antibodies, followed by immunoblotting with pTyr antibodies. […] In addition, the lysates were also subjected to immunoblotting with actin antibodies (bottom panel).
FIGS. 7A-7C show identification of WEIN-159 as a potent WEE1 epigenetic inhibitor. […] In addition, lysates were immunoprecipitated with pY37-H2B antibodies, followed by immunoblotting with H2B antibodies (middle panel). […] The lysates were also subjected to immunoblotting with pY15-Cdc2 antibodies and were immunoprecipitated with pY37-H2B antibodies, followed by immunoblotting with H2B antibodies (middle panels). In addition, the lysates were also subjected to immunoblotting with H2B antibodies (bottom panel). […] The lysates were also subjected to immunoblotting with pY15-Cdc2 antibodies and were immunoprecipitated with pY37-H2B antibodies, followed by immunoblotting with H2B antibodies (middle panels). In addition, the lysates were also subjected to immunoblotting with actin antibodies (bottom panel).
Identification of compounds with WEE1 epigenetic inhibitory role: 14 ‘hits’ that were identified in the screen are shown in FIG. 1. These compounds were further tested for their ability to inhibit WEE1 epigenetic activity. Prostate cancer derived LNCaP cells were treated with 3 uM of compounds for 48 hours. Cells were harvested, lysates were prepared, and WEE1 epigenetic activity was detected by determining histone H2B Tyr37-phopshorylation (pY37-H2B). Lysates were also assessed for WEE1 cell cycle inhibitory activity by determining Cdc2 Tyr15-phosphorylation (pY15-Cdc2). […] These are named as ‘Cell Cycle’ inhibitors. […] These compounds are the ‘Epigenetic’ inhibitors.

[2] = biological target: WEE1 (Homo sapiens, UniProt P30291); experiment: Endogenous WEE1 auto-phosphorylation in cells (WEE1 IP, pTyr immunoblot); type: cell-based; details: LNCaP cells, 10 μM overnight (FIG. 3B)
Sequence of WEE1 (P30291 whole entry): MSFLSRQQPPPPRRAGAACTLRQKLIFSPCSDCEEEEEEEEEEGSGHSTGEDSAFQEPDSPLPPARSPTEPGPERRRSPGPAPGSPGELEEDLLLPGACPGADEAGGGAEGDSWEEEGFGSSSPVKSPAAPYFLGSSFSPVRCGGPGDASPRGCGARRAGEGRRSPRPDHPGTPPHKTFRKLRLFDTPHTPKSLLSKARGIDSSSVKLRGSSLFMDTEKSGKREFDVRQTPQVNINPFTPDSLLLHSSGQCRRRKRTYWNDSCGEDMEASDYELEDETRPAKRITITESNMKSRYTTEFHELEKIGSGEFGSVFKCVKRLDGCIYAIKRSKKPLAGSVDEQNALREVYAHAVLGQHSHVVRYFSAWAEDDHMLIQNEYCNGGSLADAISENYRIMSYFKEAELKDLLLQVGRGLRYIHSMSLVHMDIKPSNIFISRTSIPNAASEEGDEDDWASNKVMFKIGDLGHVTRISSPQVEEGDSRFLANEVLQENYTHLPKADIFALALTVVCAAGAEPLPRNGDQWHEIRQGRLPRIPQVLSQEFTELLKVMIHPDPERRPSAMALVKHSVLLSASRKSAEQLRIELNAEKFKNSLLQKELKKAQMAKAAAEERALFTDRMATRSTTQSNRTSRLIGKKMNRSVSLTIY
Protocol: The reaction mix was then subjected to immunoprecipitated with WEE1 antibodies, followed by immunoblotting with pTyr antibodies (top panel). As a control, purified ACK1 protein was incubated in the reaction buffer containing ATP, in presence of 100 nM epigenetic inhibitors. The reaction mix was then subjected to immunoprecipitated with ACK1 antibodies, followed by immunoblotting with pTyr antibodies (bottom panel). […] In addition, the lysates were also subjected to immunoblotting with actin antibodies (bottom panel). […] In addition, the lysates were also subjected to immunoblotting with actin antibodies (bottom panel). […] In addition, the lysates were also subjected to immunoblotting with actin antibodies (bottom panel). To determine direct binding of these compounds causing WEE1 inhibition, a full length WEE1 kinase protein was incubated with the compounds. […] These inhibitors were further validated by assessing their ability to suppress endogenous WEEE activity; LNCaP cells were treated with 10 μM of these compounds overnight.

[3] = test system: IDH2 mRNA in melanoma cell line WM66; experiment: IDH2 mRNA qRT-PCR in WM66 cells; type: cell-based; details: 10 uM, 16 hr
Protocol: WM66 cells (FIG. 5A) or primary melanocytes (FIG. 5B) were treated with vehicle or compounds (10 uM) for 16 hr. Total RNA was isolated followed by qRT-PCR with IDH2 and actin primers. FIG. 5C indicated cells were treated with vehicle or compounds (10 uM) for 16 hr. Total genomic DNA was isolated, slot-blotted onto a nitrocellulose membrane, followed by blotting with 5-hmC antibodies (top panels). Blots were also stained with methylene blue, to determine equal loading of DNA (bottom panel).
Identification of 55152 (18-B3) scaffold as a WEE1 epigenetic inhibitor: Two major hits, 367416 (16-G9) and 55152 (18-B3) were taken up for further characterization. […] Accordingly, melanoma cell line WM66 and primary melanocytes were treated with inhibitors and IDH2 mRNA levels were measure by real time PCR.

[4] = LogD; type: physicochemical; details: pH 7.4
Protocol: (§2) ADME studies with 55152 (18-B3) and 367416 (16-G9): The solubility, microsome stability and plasma stability of these two compounds were also determined (Table 2).

[5] = Solubility; type: physicochemical
Protocol: as §2

[6] = Plasma Stability, Human; type: in vitro ADME
Protocol: as §2

[7] = Plasma Stability, Mouse; type: in vitro ADME
Protocol: as §2

[8] = biological target: T1, Wee2 KD (Homo sapiens, UniProt P0C1S8); experiment: Differential Scanning Fluorimetry (DSF), Wee2 KD; type: binding; details: kinase domain purified from HEK293T cells
T1 construct: WEE1 & WEE2 (as control) kinase domains from mammalian cells (HEK293T cells) were purified
T1 sequence (P0C1S8 212-486): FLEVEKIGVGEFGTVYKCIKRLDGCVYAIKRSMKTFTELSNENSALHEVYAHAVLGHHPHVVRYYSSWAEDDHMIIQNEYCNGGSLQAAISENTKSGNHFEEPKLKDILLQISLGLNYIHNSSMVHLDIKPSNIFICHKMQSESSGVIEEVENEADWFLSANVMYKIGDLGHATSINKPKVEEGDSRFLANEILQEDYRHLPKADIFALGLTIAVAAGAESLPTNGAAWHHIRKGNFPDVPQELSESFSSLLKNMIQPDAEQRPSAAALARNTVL
Protocol: Binding study of WEE1 epigenetic inhibitors: To identify the precise binding region/domain of WEE1 epigenetic inhibitors, WEE1 & WEE2 (as control) kinase domains from mammalian cells (HEK293T cells) were purified. The binding of inhibitors was assessed using Differential Scanning Fluorimetry (DSF).

[9] = biological target: full length human WEE1 kinase (Homo sapiens, UniProt P30291); experiment: In vitro kinase assay, purified full length WEE1, pTyr immunoblot; type: biochemical; set-up: a full length WEE1 kinase protein was incubated with the compounds; details: purified full length WEE1, 100 nM (FIG. 3A, 4A)
Sequence of full length human WEE1 kinase (P30291 whole entry): as the sequence (P30291 whole entry) above
Protocol: The reaction mix was then subjected to immunoprecipitated with WEE1 antibodies, followed by immunoblotting with pTyr antibodies (top panel). As a control, purified ACK1 protein was incubated in the reaction buffer containing ATP, in presence of 100 nM epigenetic inhibitors. The reaction mix was then subjected to immunoprecipitated with ACK1 antibodies, followed by immunoblotting with pTyr antibodies (bottom panel). […] In addition, the lysates were also subjected to immunoblotting with actin antibodies (bottom panel). […] In addition, the lysates were also subjected to immunoblotting with actin antibodies (bottom panel).
as §1
To determine direct binding of these compounds causing WEE1 inhibition, a full length WEE1 kinase protein was incubated with the compounds. […] As a control, purified ACK1 kinase was also incubated with these compounds, none of these compounds were able to inhibit ACK1 kinase activity. These inhibitors were further validated by assessing their ability to suppress endogenous WEEE activity; LNCaP cells were treated with 10 μM of these compounds overnight.

For `Nc1ccc(NC(=O)c2ccc(C(=O)Nc3ccc(N)cc3)cc2)cc1` [SG5-061, N^1,N^4-bis(4-aminophenyl)terephthalamide], the “H2B Tyr37-phosphorylation (pY37-H2B)” value ([1]; 3 uM, 48 hours (FIG. 2A)) was “specifically suppressed H2B Tyr37-phosphotylation”, the “H2B Tyr37-phosphorylation” value ([1]; 10 μM, 12 hours (FIG. 4B)) was “complete loss of H2B Tyr37-phosphorylation” and the WEE1 auto-phosphorylation [2] was “significant loss of WEE1 auto-phosphorylation”. For the same compound, the “IDH2 mRNA levels” value [3] was “Significant increase in IDH2 mRNA levels”, the logD [4] was 0.98 and the solubility ([5]; aqueous buffer, pH 5.0, read-out: Solubility (ug/mL) pH 5.0) was 0.13 µg/mL (≈ 0.375 µM). The solubility ([5]; pH 6.2, aqueous buffer, read-out: Solubility (ug/mL) pH 6.2) was 0.22 µg/mL (≈ 0.635 µM), the solubility ([5]; pH 7.4, aqueous buffer, read-out: Solubility (ug/mL) pH 7.4) was 0.15 µg/mL (≈ 0.433 µM) and the “Plasma Stability % remaining @ 3 hrs Human” value [6] was 58.57%. The “Plasma Stability % remaining @ 3 hrs Mouse” value [7] was 50.76%, the “ΔTm for Wee2 KD (° C.)” value [8] was 0.1 °C and the “ΔTm for Wee2 KD (° C.)” value ([8]; listed as 55152 (18-B3)) was 1.1 °C. The “WEE1 kinase activity (pTyr immunoblot)” value ([9]; listed as 18-B3) was “suppresses kinase activation better than 16-G9” and the “WEE1 kinase activity (pTyr immunoblot)” value ([9]; listed as 55152 (18-B3)) was “significant loss of WEE1 kinase activity”.
